Laboratory results from ChEMBL document CHEMBL1124186, “Synthesis and evaluation of tylosin-related macrolides modified at the aldehyde function: a new series of orally effective antibiotics” (1988).
In brackets after ≈: the same amount, converted by molar mass.

Legend:
Staphylococcus aureus = assay: In vitro antimicrobial activity against Staphylococcus aureus X1; assay type: functional
Enterococcus faecium = assay: In vitro antimicrobial activity against Streptococcus faecium X66; assay type: functional, streptococcus fae-cium
Haemophilus influenzae = assay: In vitro antimicrobial activity against Haemophilus influenzae.; assay type: functional
Streptococcus pyogenes = assay: In vitro antimicrobial activity against Streptococcus pyogenes C203; assay type: functional
[1] = system: Staphylococcus epidermidis; assay: In vitro antimicrobial activity against Staphylococcus epidermidis EPI1; assay type: functional
Streptococcus pneumoniae = assay: In vitro antimicrobial activity against Streptococcus pneumoniae; assay type: functional

| MIC (Staphylococcus aureus) [µg/mL] | MIC (Enterococcus faecium) [µg/mL] | MIC (Haemophilus influenzae) [µg/mL] | MIC (Streptococcus pyogenes) [µg/mL] | MIC [1] [µg/mL] | MIC (Streptococcus pneumoniae) [µg/mL] | Compound |
| --- | --- | --- | --- | --- | --- | --- |
| 1 (≈ 0.99 µM) | > 128 | > 128 | 4 (≈ 3.96 µM) | 2 (≈ 1.98 µM) | 64 (≈ 63.3 µM) | CC[C@H]1OC(=O)C[C@@H](O)[C@H](C)[C@@H](O[C@@H]2O[C@H](C)[C@@H](O[C@H]3C[C@@](C)(O)[C@@H](O)[C@H](C)O3)[C@H](N(C)C)[C@H]2O)[C@@H](CCSc2ccccc2)C[C@@H](C)C(=O)/C=C/C(C)=C/[C@@H]1CO[C@@H]1O[C@H](C)[C@@H](O)[C@@H](OC)[C@H]1OC |
| 1 (≈ 0.964 µM) | 64 (≈ 61.7 µM) | 128 (≈ 123 µM) | 1 (≈ 0.964 µM) | 1 (≈ 0.964 µM) | 8 (≈ 7.71 µM) | CC[C@H]1OC(=O)C[C@@H](O)[C@H](C)[C@@H](O[C@@H]2O[C@H](C)[C@@H](O[C@H]3C[C@@](C)(O)[C@@H](O)[C@H](C)O3)[C@H](N(C)C)[C@H]2O)[C@@H](CCOc2cccc(N(C)C)c2)C[C@@H](C)C(=O)/C=C/C(C)=C/[C@@H]1CO[C@@H]1O[C@H](C)[C@@H](O)[C@@H](OC)[C@H]1OC |
| 128 (≈ 176 µM) | > 128 | > 128 | > 128 | 128 (≈ 176 µM) | > 128 | CC[C@H]1C[C@@H](C)C(=O)/C=C/C(C)=C/[C@H](CO)[C@@H](CC)OC(=O)C[C@@H](O)[C@H](C)[C@H]1O[C@@H]1O[C@H](C)[C@@H](O[C@H]2C[C@@](C)(O)[C@@H](O)[C@H](C)O2)[C@H](N(C)C)[C@H]1O |
| 4 (≈ 4.81 µM) | 8 (≈ 9.63 µM) | 64 (≈ 77 µM) | 2 (≈ 2.41 µM) | 4 (≈ 4.81 µM) | 1 (≈ 1.2 µM) | CC[C@H]1OC(=O)C[C@@H](O)[C@H](C)[C@@H](O[C@@H]2O[C@H](C)[C@@H](O[C@H]3C[C@@](C)(O)[C@@H](O)[C@H](C)O3)[C@H](N(C)C)[C@H]2O)[C@@H](CCNCCc2ccccc2)C[C@@H](C)C(=O)/C=C/C(C)=C/[C@@H]1C |
| 8 (≈ 14.1 µM) | 64 (≈ 113 µM) | 64 (≈ 113 µM) | 8 (≈ 14.1 µM) | 16 (≈ 28.2 µM) | 16 (≈ 28.2 µM) | CC[C@H]1C[C@@H](C)C(=O)/C=C/C(C)=C/[C@H](C)[C@@H](CC)OC(=O)C[C@@H](O)[C@H](C)[C@H]1O[C@@H]1O[C@H](C)[C@@H](O)[C@H](N(C)C)[C@H]1O |
| 64 (≈ 73.3 µM) | > 128 | > 128 | 128 (≈ 147 µM) | 32 (≈ 36.7 µM) | 16 (≈ 18.3 µM) | CC[C@H]1OC(=O)C[C@@H](O)[C@H](C)[C@@H](O[C@@H]2O[C@H](C)[C@@H](O[C@H]3C[C@@](C)(O)[C@@H](O)[C@H](C)O3)[C@H](N(C)C)[C@H]2O)[C@@H](CCN2C(=O)c3ccccc3C2=O)C[C@@H](C)C(=O)/C=C/C(C)=C/[C@@H]1CO |
| 0.5 (≈ 0.475 µM) | 8 (≈ 7.6 µM) | > 128 | 0.5 (≈ 0.475 µM) | 0.5 (≈ 0.475 µM) | 0.5 (≈ 0.475 µM) | CC[C@H]1OC(=O)C[C@@H](O)[C@H](C)[C@@H](O[C@@H]2O[C@H](C)[C@@H](O[C@H]3C[C@@](C)(O)[C@@H](O)[C@H](C)O3)[C@H](N(C)C)[C@H]2O)[C@@H](CCOc2ccc(OC(C)=O)cc2)C[C@@H](C)C(=O)/C=C/C(C)=C/[C@@H]1CO[C@@H]1O[C@H](C)[C@@H](O)[C@@H](OC)[C@H]1OC |
| 0.25 (≈ 0.43 µM) | 0.5 (≈ 0.859 µM) | 1 (≈ 1.72 µM) | 0.25 (≈ 0.43 µM) | 0.25 (≈ 0.43 µM) | 0.12 (≈ 0.206 µM) | CC[C@H]1OC(=O)C[C@@H](O)[C@H](C)[C@@H](O[C@@H]2O[C@H](C)[C@@H](O)[C@H](N(C)C)[C@H]2O)[C@@H](CC=O)C[C@@H](C)C(=O)/C=C/C(C)=C/[C@@H]1C |
| 0.5 (≈ 0.575 µM) | 16 (≈ 18.4 µM) | 32 (≈ 36.8 µM) | 0.5 (≈ 0.575 µM) | 0.5 (≈ 0.575 µM) | 2 (≈ 2.3 µM) | CC[C@H]1OC(=O)C[C@@H](O)[C@H](C)[C@@H](O[C@@H]2O[C@H](C)[C@@H](O)[C@H](N(C)C)[C@H]2O)[C@@H](CCI)C[C@@H](C)C(=O)/C=C/C(C)=C/[C@@H]1CO[C@@H]1O[C@H](C)[C@@H](O)[C@@H](O)[C@H]1OC |
| 128 (≈ 180 µM) | > 128 | > 128 | 128 (≈ 180 µM) | 64 (≈ 89.9 µM) | 64 (≈ 89.9 µM) | CC[C@H]1C[C@@H](C)C(=O)/C=C/C(C)=C/[C@H](C)[C@@H](CC)OC(=O)C[C@@H](O)[C@H](C)[C@H]1O[C@@H]1O[C@H](C)[C@@H](O[C@H]2C[C@@](C)(O)[C@@H](O)[C@H](C)O2)[C@H](N(C)C)[C@H]1O |
| 0.5 (≈ 0.478 µM) | 32 (≈ 30.6 µM) | > 128 | 4 (≈ 3.82 µM) | 1 (≈ 0.956 µM) | 4 (≈ 3.82 µM) | CC[C@H]1OC(=O)C[C@@H](O)[C@H](C)[C@@H](O[C@@H]2O[C@H](C)[C@@H](O[C@H]3C[C@@](C)(O)[C@@H](O)[C@H](C)O3)[C@H](N(C)C)[C@H]2O)[C@@H](CCOc2ncnc3ccccc23)C[C@@H](C)C(=O)/C=C/C(C)=C/[C@@H]1CO[C@@H]1O[C@H](C)[C@@H](O)[C@@H](OC)[C@H]1OC |
| 4 (≈ 4 µM) | 64 (≈ 64 µM) | > 128 | 2 (≈ 2 µM) | 8 (≈ 8.01 µM) | 16 (≈ 16 µM) | CC[C@H]1OC(=O)C[C@@H](O)[C@H](C)[C@@H](O[C@@H]2O[C@H](C)[C@@H](O[C@H]3C[C@@](C)(O)[C@@H](O)[C@H](C)O3)[C@H](N(C)C)[C@H]2O)[C@@H](CCN2CCCCCCC2)C[C@@H](C)C(=O)/C=C/C(C)=C/[C@@H]1CO[C@@H]1O[C@H](C)[C@@H](O)[C@@H](O)[C@H]1OC |
| 1 (≈ 0.941 µM) | > 128 | > 128 | 1 (≈ 0.941 µM) | 2 (≈ 1.88 µM) | 16 (≈ 15.1 µM) | CC[C@H]1OC(=O)C[C@@H](O)[C@H](C)[C@@H](O[C@@H]2O[C@H](C)[C@@H](O[C@H]3C[C@@](C)(O)[C@@H](O)[C@H](C)O3)[C@H](N(C)C)[C@H]2O)[C@@H](CCOc2cc(Cl)cc(Cl)c2)C[C@@H](C)C(=O)/C=C/C(C)=C/[C@@H]1CO[C@@H]1O[C@H](C)[C@@H](O)[C@@H](OC)[C@H]1OC |
| 0.5 (≈ 0.689 µM) | 0.5 (≈ 0.689 µM) | 8 (≈ 11 µM) | 0.25 (≈ 0.344 µM) | 0.5 (≈ 0.689 µM) | 0.12 (≈ 0.165 µM) | CC[C@H]1OC(=O)C[C@@H](O)[C@H](C)[C@@H](O[C@@H]2O[C@H](C)[C@@H](O[C@H]3C[C@@](C)(O)[C@@H](O)[C@H](C)O3)[C@H](N(C)C)[C@H]2O)[C@@H](CC=O)C[C@@H](C)C(=O)/C=C/C(C)=C/[C@@H]1C |
| > 128 | > 128 | > 128 | > 128 | > 128 | > 128 | CC[C@H]1OC(=O)C[C@@H](O)[C@H](C)[C@H]2OCC[C@H]2C[C@@H](C)C(=O)/C=C/C(C)=C/[C@@H]1CO[C@@H]1O[C@H](C)[C@@H](O)[C@@H](OC)[C@H]1OC |
| 1 (≈ 0.951 µM) | 64 (≈ 60.9 µM) | 128 (≈ 122 µM) | 2 (≈ 1.9 µM) | 0.5 (≈ 0.476 µM) | 1 (≈ 0.951 µM) | CC[C@H]1OC(=O)C[C@@H](O)[C@H](C)[C@@H](O[C@@H]2O[C@H](C)[C@@H](O[C@H]3C[C@@](C)(O)[C@@H](O)[C@H](C)O3)[C@H](N(C)C)[C@H]2O)[C@@H](CCNc2ccc(OC(C)=O)cc2)C[C@@H](C)C(=O)/C=C/C(C)=C/[C@@H]1CO[C@@H]1O[C@H](C)[C@@H](O)[C@@H](OC)[C@H]1OC |
| 16 (≈ 18.9 µM) | 32 (≈ 37.8 µM) | 64 (≈ 75.6 µM) | 8 (≈ 9.44 µM) | 16 (≈ 18.9 µM) | 4 (≈ 4.72 µM) | CC[C@H]1OC(=O)C[C@@H](O)[C@H](C)[C@@H](O[C@@H]2O[C@H](C)[C@@H](O[C@H]3C[C@@](C)(O)[C@@H](O)[C@H](C)O3)[C@H](N(C)C)[C@H]2O)[C@@H](CCNCCc2ccccc2)C[C@@H](C)C(=O)/C=C/C(C)=C/[C@@H]1CO |
| 1 (≈ 0.91 µM) | 4 (≈ 3.64 µM) | > 128 | 2 (≈ 1.82 µM) | 2 (≈ 1.82 µM) | 1 (≈ 0.91 µM) | CC[C@H]1OC(=O)C[C@@H](O)[C@H](C)[C@@H](O[C@@H]2O[C@H](C)[C@@H](O[C@H]3C[C@@](C)(O)[C@@H](O)[C@H](C)O3)[C@H](N(C)C)[C@H]2O)[C@@H](CCOc2ccc(C(=O)c3ccccc3)cc2)C[C@@H](C)C(=O)/C=C/C(C)=C/[C@@H]1CO[C@@H]1O[C@H](C)[C@@H](O)[C@@H](OC)[C@H]1OC |
| 0.25 (≈ 0.285 µM) | 4 (≈ 4.56 µM) | 16 (≈ 18.2 µM) | 1 (≈ 1.14 µM) | 0.25 (≈ 0.285 µM) | 1 (≈ 1.14 µM) | CC[C@H]1OC(=O)C[C@@H](O)[C@H](C)[C@@H](O[C@@H]2O[C@H](C)[C@@H](O)[C@H](N(C)C)[C@H]2O)[C@@H](CCOc2ccc(C=O)cc2)C[C@@H](C)C(=O)/C=C/C(C)=C/[C@@H]1CO[C@@H]1O[C@H](C)[C@@H](O)[C@@H](OC)[C@H]1OC |
| 8 (≈ 11.2 µM) | 32 (≈ 44.9 µM) | 128 (≈ 180 µM) | 64 (≈ 89.8 µM) | 8 (≈ 11.2 µM) | 64 (≈ 89.8 µM) | CC[C@H]1OC(=O)C[C@@H](O)[C@H](C)[C@@H](O[C@@H]2O[C@H](C)[C@@H](O)[C@H](N(C)C)[C@H]2O)[C@@H](CCN2C(=O)c3ccccc3C2=O)C[C@@H](C)C(=O)/C=C/C(C)=C/[C@@H]1C |
| 64 (≈ 89.6 µM) | 128 (≈ 179 µM) | > 128 | 64 (≈ 89.6 µM) | 16 (≈ 22.4 µM) | 64 (≈ 89.6 µM) | CC[C@H]1OC(=O)C[C@@H](O)[C@H](C)[C@@H](O[C@@H]2O[C@H](C)[C@@H](O[C@H]3C[C@@](C)(O)[C@@H](O)[C@H](C)O3)[C@H](N(C)C)[C@H]2O)[C@@H](C)C[C@@H](C)C(=O)/C=C/C(C)=C/[C@@H]1CO |
| 0.25 (≈ 0.305 µM) | 8 (≈ 9.77 µM) | 16 (≈ 19.5 µM) | 0.25 (≈ 0.305 µM) | 0.25 (≈ 0.305 µM) | 2 (≈ 2.44 µM) | CC[C@H]1OC(=O)C[C@@H](O)[C@H](C)[C@@H](O[C@@H]2O[C@H](C)[C@@H](O)[C@H](N(C)C)[C@H]2O)[C@@H](CCO[N+](=O)[O-])C[C@@H](C)C(=O)/C=C/C(C)=C/[C@@H]1CO[C@@H]1O[C@H](C)[C@@H](O)[C@@H](OC)[C@H]1OC |
| 1 (≈ 1.09 µM) | > 128 | > 128 | 4 (≈ 4.35 µM) | 1 (≈ 1.09 µM) | 64 (≈ 69.6 µM) | CC[C@H]1OC(=O)C[C@@H](O)[C@H](C)[C@@H](O[C@@H]2O[C@H](C)[C@@H](O[C@H]3C[C@@](C)(O)[C@@H](O)[C@H](C)O3)[C@H](N(C)C)[C@H]2O)[C@@H](CCF)C[C@@H](C)C(=O)/C=C/C(C)=C/[C@@H]1CO[C@@H]1O[C@H](C)[C@@H](O)[C@@H](OC)[C@H]1OC |
